Experimental data taken from article PMC12118337, “Development of a Peptide Inhibitor Targeting the C‐SH2 Domain of the SHP2 Phosphatase” (Chembiochem, 2025).
Residues, ends and D or L forms follow the SMILES beside them. *: point of attachment. 5FAM = O=C1OC2(c3ccc(O)cc3Oc3cc(O)ccc32)c2ccc(C(=O)*)cc21; X1 = O=C(O)C(C(=O)O)*

Columns and labels:
CSK SH2 domain = test: FP binding assay, CSK SH2 domain; conditions: 100 nM peptide, three independent experiments
Method: buffer and stored in 5 mL binding buffer at 4°C. His-tagged 3C protease (0.5 mg; EMBL) was added to the pooled eluted fractions and dialysed using Spectra Por Dialysis Tubing (MWCO 6-8 kDa, 23 mm; Spectrum Labs) in 1 L of binding buffer at 4°C for 3 hours, then overnight in fresh buffer. A new column was prepared by loading 2 mL Ni-NTA Agarose (Invitrogen) as a 50% slurry in EtOH. The column was washed with 10 mL H2O to remove the EtOH and equilibrated with 10 mL binding buffer. The protein/3C protease mixture was loaded onto the column and incubated for 1 hour at 4°C on a rocker. […] Protein purification was monitored by SDS-PAGE using NuPAGE 4-12% Bis-Tris Protein Gels (Invitrogen) run in MOPS buffer (50 mM MOPS, 50 mM Tris-HCl pH 7.7, 1 mM EDTA, 0.1% SDS) followed by Coomassie staining using Coomassie Brilliant Blue (Roth). […]
4. Fluorescence polarization
Fluorescence polarization (FP) was used to measure the binding of FAM-labelled peptides to the SHP2 C-SH2, SHP2 N-SH2, SHP2 PTP, CSK SH2 or Src SH2 domains. […]
concentration of 100 nM in a final volume of 200 µL. […] The FP was immediately measured on a Synergy H1 Microplate Reader (BioTek) with the excitation and emission monitored at 485 nm and 528 nm, respectively, over 30 minutes. FP values were automatically calculated by the Gen5 3.03 (BioTek) software associated with the microplate reader. […]

[1] = Peptide stability in Jurkat cell lysate (LC-MS); type: in vitro ADME; conditions: 200 µM peptide, WT Jurkat T cell lysate (RIPA buffer with protease inhibitor cocktail), 37 °C in the dark, 0, 6 or 24 h, peak area at 254 nm normalised to FAM (200 µM) internal control, three independent experiments
Method: 1. Cell culture and cell lines
Jurkat T cells were cultured in RPMI 1640 GlutaMAX (Thermo Fisher Scientific) supplemented with 10% heat-inactivated fetal bovine serum (FBS; Thermo Fisher Scientific), 100 U/mL penicillin (Sigma-Aldrich) and 100 µg/mL streptomycin (Sigma-Aldrich). HeLa cells were cultured in DMEM low glucose GlutaMAX (Thermo Fisher Scientific) supplemented with 10% fetal bovine serum (FBS; Thermo Fisher Scientific), 100 U/mL penicillin (Sigma-Aldrich) and 100 µg/mL streptomycin (Sigma-Aldrich).
Both cell lines tested negative for mycoplasma contamination.
2. Peptide stability in Jurkat cell lysate
The stability of FAM-labelled peptide 26 in WT Jurkat T cell lysate was evaluated by LC-MS. 106 Jurkat cells were washed with 1 mL PBS and lysed in 1 mL ice-cold RIPA buffer (25 mM Tris-HCl pH 7.5, 150 mM NaCl, 1% Nonidet P-40, 1% sodium deoxycholate, 0.1% SDS) containing cOmplete EDTA-free Protease Inhibitor Cocktail (Roche), on ice for 30 minutes vortexing every 10 minutes. Cell lysate was centrifuged at 20000 x g for 20 minutes at 4°C. […] The supernatant was collected on ice, filtered using a 13 mm syringe filter with a 0.2 µm PTFE membrane (Pall Life Sciences) and analysed by analytical HPLC-MS. The area under the peak at 254 nm corresponding to peptide 26 and FAM was determined. […]

CC[C@H](C)[C@H](NC(=O)[C@@H](NC(=O)[C@H](C)NC(=O)[C@H](Cc1ccc(OC(C(=O)O)C(=O)O)cc1)NC(=O)[C@H](CCC(=O)O)NC(=O)[C@@H](NC(=O)[C@H](CCC(N)=O)NC(=O)c1ccc2c(c1)C(=O)OC21c2ccc(O)cc2Oc2cc(O)ccc21)[C@@H](C)O)[C@@H](C)O)C(=O)N[C@@H](CCCCN)C(=O)N[C@@H](Cc1c[nH]cn1)C(=O)N1CCC[C@H]1C(N)=O [peptide 26] (5FAM-QTEY(X1)ATIKHP-NH2)
binding to CSK SH2 domain compared to SHP2 C‐SH2 domain (CSK SH2 domain): at least two orders of magnitude weaker | stability in Jurkat T cell lysate [1]: stable
